Laboratory results published in PMC10673995, “Discovery of a novel cardiac-specific myosin modulator using artificial intelligence-based virtual screening” (Nature Communications, 2023).
“And” between values parts separate entries of the source, which are not always exact repeats. Equal values may be shown once.

Tested on: isolated Langendorff-perfused rat hearts
Assay: Langendorff-perfused rat hearts, haemodynamic parameters
Design: key to LVSP, individual hearts / LVEDP, individual hearts: pressure in mmHg; Max (Figure 5c): unit not given here
Conditions: for Max (Figure 5c): one column per heart; for LVSP representative trace, ON: during perfusion with compound
Method: Next, we tested for the functional effects of F10 in isolated Langendorff-perfused rat hearts. Hearts were initially stabilized in modified Krebs-Henseleit (KH) solution for about 25–30 min and subsequently perfused with KH solution containing 20 μmol L^−1 F10 for 5 mins to reach a new steady state.
Rat hearts were Langendorff-perfused as described previously. Briefly, Wistar rats (Rattus norvegicus, male, 200–250 g, 7 weeks old) were anesthetized by injection of 0.9 mL sodium pentobarbitone 20% (w/v). […] The aorta was cannulated and secured with sutures (Mersilk 3‐0; Ethicon, Somerville, NJ, USA). Hearts were perfused at a constant perfusion pressure of 70 ± 2 mmHg using a peristaltic pump (Gilson Minipuls 4, Middleton, WI, USA) and a feedback control system (STH Pump Controller; AD Instruments, Oxford, UK). […] A fluid‐filled balloon, attached to a pressure transducer, was inserted into the left ventricle and inflated to give an end‐diastolic pressure between 3 and 8 mmHg. Left ventricular pressure (LVP), perfusion pressure, coronary flow and arterial and venous oxygen tensions were recorded using a PowerLab recorder and LabChart 8.0 software (ADInstruments). Functional parameters were averaged for ∼80 cardiac cycles at 5 min intervals.

[1] = 20 μmol L^−1 F10 or 1 μmol L^−1 Mavacamten
[2] = Time 11 min, during perfusion with 20 μmol L^−1 F10 or 1 μmol L^-1 Mavacamten
[3] = Time 12 min, during perfusion with 20 μmol L^−1 F10 or 1 μmol L^-1 Mavacamten
[4] = Time 13 min, during perfusion with 20 μmol L^−1 F10 or 1 μmol L^-1 Mavacamten
[5] = Time 14 min, during perfusion with 20 μmol L^−1 F10 or 1 μmol L^-1 Mavacamten
[6] = Time 15 min, during perfusion with 20 μmol L^−1 F10 or 1 μmol L^-1 Mavacamten

Structure (SMILES): CC(C)n1c(=O)cc(N[C@@H](C)c2ccccc2)[nH]c1=O [Mavacamten]
- effect on coronary perfusion / coronary flow [1]: without affecting
- effect on heart rate [1]: without affecting
- effect on left ventricular end-diastolic pressure (LVEDP) [1]: did not affect
- Max (Figure 5c) (Time 0 min): 3876.58 and 5238.56 and 5331.08 and 5274.63
- Max (Figure 5c) (Time 1 min): 3763.48 and 5575.44 and 5372.46 and 4664.37
- Max (Figure 5c) (Time 2 min): 3604.67 and 5570.63 and 5457.56 and 4849.22
- Max (Figure 5c) (Time 3 min): 3616.7 and 5958.05 and 5555.1 and 4920.12
- Max (Figure 5c) (Time 4 min): 3720.17 and 5852.17 and 5485.6 and 4634
- Max (Figure 5c) (Time 5 min): 3611.89 and 6003.77 and 5528.57 and 4575.4
- Max (Figure 5c) (Time 6 min): 3669.64 and 6398.4 and 5572.15 and 4575.4
- Max (Figure 5c) (Time 7 min): 3638.35 and 5690.95 and 5454.91 and 4575.4
- Max (Figure 5c) (Time 8 min): 3568.57 and 5926.76 and 5613.04 and 4575.4
- Max (Figure 5c) (Time 9 min): 3638.35 and 6073.55 and 6702.43 and 4575.4
- Max (Figure 5c) (Time 10 min): 3558.95 and 6376.75 and 5920.41 and 4694.75
- LVEDP, individual hearts [2]: 1 mmHg (2×) and 2 mmHg (2×) and 3 mmHg
- LVSP, individual hearts [2]: 91 and 157 and 150 and 205 and 152
- Max (Figure 5c) (Time 11 min): 3462.69 and 5852.17 and 5171.55 and 4904.93
- LVEDP, individual hearts [3]: 0 and 1 (2×) and 2 and 3
- LVSP, individual hearts [3]: 71 and 113 and 134 and 163 and 147
- Max (Figure 5c) (Time 12 min): 2779.3 and 4057.05 and 4519.31 and 4773.25
- LVEDP, individual hearts [4]: 0 and 1 (2×) and 3 and 5
- LVSP, individual hearts [4]: 60 and 95 and 115 and 137 and 135
- Max (Figure 5c) (Time 13 min): 2415.94 and 3070.46 and 3716.1 and 3709.72
- LVEDP, individual hearts [5]: 0 and 1 (2×) and 2 and 5
- LVSP, individual hearts [5]: 51 and 81 and 104 and 115 and 105
- Max (Figure 5c) (Time 14 min): 2076.65 and 2695.08 and 3441.74 and 3481.82
- LVEDP, individual hearts [6]: 0 and 1 (2×) and 2 and 7
- LVSP, individual hearts [6]: 45 and 71 and 97 and 99 and 100
- Max (Figure 5c) (Time 15 min): 1876.93 and 2447.23 and 3260.21 and 3233.66
- LVEDP, individual hearts (Time 16 min, after washout): 0 and 1 (2×) and 3 and 5
- LVSP, individual hearts (Time 16 min, after washout): 44 and 65 and 100 and 90 and 98
- LVEDP, individual hearts (Time 17 min, after washout): 0 and 1 (2×) and 3 and 2
- LVSP, individual hearts (Time 17 min, after washout): 49 and 71 and 103 and 101 and 98
- LVEDP, individual hearts (Time 18 min, after washout): 1 mmHg (4×) and 3 mmHg
- LVSP, individual hearts (Time 18 min, after washout): 52 and 78 and 106 and 103 and 96
- LVEDP, individual hearts (Time 19 min, after washout): 1 mmHg (4×) and 2 mmHg
- LVSP, individual hearts (Time 19 min, after washout): 55 and 83 and 109 (2×) and 98
- LVEDP, individual hearts (Time 20 min, after washout): 1 mmHg (3×) and 2 mmHg (2×)
- LVSP, individual hearts (Time 20 min, after washout): 58 and 87 and 114 (2×) and 98
- Max (Figure 5c) (Time 20 min): 2218.63 and 2954.96 and 3682.2 and 4327.58
- LVEDP, individual hearts (Time 21 min, after washout): 1 mmHg (3×) and 2 mmHg (2×)
- LVSP, individual hearts (Time 21 min, after washout): 60 and 101 (2×) and 118 (2×)
- Max (Figure 5c) (Time 21 min): 2317.29 and 3027.15 and 3768.27 and 4469.39
- LVEDP, individual hearts (Time 22 min, after washout): 1 mmHg (4×) and 0 mmHg
- LVSP, individual hearts (Time 22 min, after washout): 63 and 96 and 122 and 121 and 125
- Max (Figure 5c) (Time 22 min): 2358.19 and 3503.6 and 3945.22 and 4568.14
- LVEDP, individual hearts (Time 23 min, after washout): 1 mmHg (2×) and 0 mmHg and 2 mmHg and 3 mmHg
- LVSP, individual hearts (Time 23 min, after washout): 66 and 99 and 125 and 126 and 103
- Max (Figure 5c) (Time 23 min): 2526.64 and 3729.79 and 4137.98 and 4461.79
- LVEDP, individual hearts (Time 24 min, after washout): 1 mmHg (4×) and 0 mmHg
- LVSP, individual hearts (Time 24 min, after washout): 67 and 106 and 126 and 130 and 104
- Max (Figure 5c) (Time 24 min): 2654.17 and 3905.46 and 4295.47 and 4963.17
- LVEDP, individual hearts (Time 25 min, after washout): 1 and 0 (2×) and 3 and 2
- LVSP, individual hearts (Time 25 min, after washout): 67 and 105 and 127 and 133 and 110
- Max (Figure 5c) (Time 25 min): 2752.83 and 3729.79 and 4394.02 and 5097.38
- LVSP representative trace, OFF (after washout, t 0 s): 97.9459 mmHg
- LVSP representative trace, OFF (after washout, t 10 s): 98.66 mmHg
- LVSP representative trace, OFF (after washout, t 20 s): 99.4941 mmHg
- LVSP representative trace, OFF (after washout, t 30 s): 99.8652 mmHg
- LVSP representative trace, OFF (after washout, t 40 s): 99.9074 mmHg
- LVSP representative trace, OFF (after washout, t 50 s): 100.799 mmHg
- LVSP representative trace, OFF (after washout, t 60 s): 101.94 mmHg
- LVSP representative trace, OFF (after washout, t 70 s): 102.076 mmHg
- LVSP representative trace, OFF (after washout, t 80 s): 102.473 mmHg
- LVSP representative trace, OFF (after washout, t 90 s): 103.301 mmHg
- LVSP representative trace, OFF (after washout, t 100 s): 104.178 mmHg
- LVSP representative trace, OFF (after washout, t 110 s): 104.015 mmHg
- LVSP representative trace, OFF (after washout, t 120 s): 104.172 mmHg
- LVSP representative trace, OFF (after washout, t 130 s): 104.333 mmHg
- LVSP representative trace, OFF (after washout, t 140 s): 104.863 mmHg
- LVSP representative trace, OFF (after washout, t 150 s): 105.62 mmHg
- LVSP representative trace, OFF (after washout, t 160 s): 106.146 mmHg
- LVSP representative trace, OFF (after washout, t 170 s): 107.035 mmHg
- LVSP representative trace, OFF (after washout, t 180 s): 107.188 mmHg
- LVSP representative trace, OFF (after washout, t 190 s): 108.073 mmHg
- LVSP representative trace, OFF (after washout, t 200 s): 108.759 mmHg
- LVSP representative trace, OFF (after washout, t 210 s): 109.171 mmHg
- LVSP representative trace, OFF (after washout, t 220 s): 109.899 mmHg
- LVSP representative trace, OFF (after washout, t 230 s): 110.383 mmHg
- LVSP representative trace, OFF (after washout, t 240 s): 111.699 mmHg
- LVSP representative trace, OFF (after washout, t 250 s): 111.591 mmHg
- LVSP representative trace, OFF (after washout, t 260 s): 112.354 mmHg
- LVSP representative trace, OFF (after washout, t 270 s): 113.909 mmHg
- LVSP representative trace, OFF (after washout, t 280 s): 115.189 mmHg
- LVSP representative trace, OFF (after washout, t 290 s): 115.643 mmHg
- LVSP representative trace, OFF (after washout, t 300 s): 115.694 mmHg
- LVSP representative trace, OFF (after washout, t 310 s): 117.014 mmHg
- LVSP representative trace, OFF (after washout, t 320 s): 117.329 mmHg
- LVSP representative trace, OFF (after washout, t 330 s): 117.56 mmHg
- LVSP representative trace, OFF (after washout, t 340 s): 118.377 mmHg
- LVSP representative trace, OFF (after washout, t 350 s): 118.795 mmHg
- LVSP representative trace, OFF (after washout, t 360 s): 118.884 mmHg
- LVSP representative trace, OFF (after washout, t 370 s): 120.043 mmHg
- LVSP representative trace, OFF (after washout, t 380 s): 121.007 mmHg
- LVSP representative trace, OFF (after washout, t 390 s): 121.543 mmHg
- LVSP representative trace, OFF (after washout, t 400 s): 122.385 mmHg
- LVSP representative trace, ON (t 0 s): 185.674 mmHg
- LVSP representative trace, ON (t 10 s): 179.044 mmHg
- LVSP representative trace, ON (t 20 s): 172.645 mmHg
- LVSP representative trace, ON (t 30 s): 172.645 mmHg
- LVSP representative trace, ON (t 40 s): 172.645 mmHg
- LVSP representative trace, ON (t 50 s): 163.036 mmHg
- LVSP representative trace, ON (t 60 s): 160.436 mmHg
- LVSP representative trace, ON (t 70 s): 155.482 mmHg
- LVSP representative trace, ON (t 80 s): 149.519 mmHg
- LVSP representative trace, ON (t 90 s): 144.889 mmHg
- LVSP representative trace, ON (t 100 s): 139.74 mmHg
- LVSP representative trace, ON (t 110 s): 137.111 mmHg
- LVSP representative trace, ON (t 120 s): 131.856 mmHg
- LVSP representative trace, ON (t 130 s): 128.177 mmHg
- LVSP representative trace, ON (t 140 s): 123.963 mmHg
- LVSP representative trace, ON (t 150 s): 121.031 mmHg
- LVSP representative trace, ON (t 160 s): 117.5 mmHg
- LVSP representative trace, ON (t 170 s): 114.951 mmHg
- LVSP representative trace, ON (t 180 s): 110.93 mmHg
- LVSP representative trace, ON (t 190 s): 108.804 mmHg
- LVSP representative trace, ON (t 200 s): 106.216 mmHg
- LVSP representative trace, ON (t 210 s): 103.076 mmHg
- LVSP representative trace, ON (t 220 s): 101.63 mmHg
- LVSP representative trace, ON (t 230 s): 99.0368 mmHg
- LVSP representative trace, ON (t 240 s): 96.0294 mmHg
- LVSP representative trace, ON (t 250 s): 94.9632 mmHg
- LVSP representative trace, ON (t 260 s): 93.4811 mmHg
- LVSP representative trace, ON (t 270 s): 90.0331 mmHg
- LVSP representative trace, ON (t 280 s): 88.9689 mmHg
